In brackets after ≈: the same amount, converted by molar mass. Read-outs that look alike come from different tables or passages of the source. Where a SMILES comes first, the peptide text is derived from it. [ ]: non-standard residue; d: D form.
Tests used:
MDRST 8009 = assay type: cell-based, Salmonella typhimurium; conditions: agent alone
Summary of the method: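 Peptides were serially diluted twofold in Mueller-Hinton medium and combined 1:1 with bacterial suspensions prepared at 2×10^6 CFU. Readout was the minimal inhibitory concentration, i.e. the lowest concentration with no growth.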

A. baumannii = assay: MIC of antimicrobial peptide during combined treatment with antibiotic; assay type: cell-based, Acinetobacter baumannii
Summary of the method: (§1)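 Broth microdilution in MH medium; strains were diluted to 2×10^6 CFU per ml before plating. Peptide was serially diluted stepwise at 2:1 starting from its MIC, and MH-diluted antibiotic was then added to determine MIC. The reversed arrangement was also tested.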

MDRAB 12035 = assay: as above; assay type: cell-based, Acinetobacter baumannii
Summary of the method: as §1

MDREC 1229 [1] = assay: MIC of antibiotic during combined treatment with antimicrobial peptide; assay type: cell-based, Escherichia coli
Summary of the method: as §1

E. coli = assay type: cell-based, Escherichia coli; conditions: E. coli
Summary of the method: as §1

MDREC 1229 [2] = assay type: cell-based, Escherichia coli
Summary of the method: as §1

[3] = erythromycin 4 μg/ml (Conc./MIC 1/8)
[4] = erythromycin 8 μg/ml (Conc./MIC 1/4)
[5] = erythromycin 16 μg/ml (Conc./MIC 1/2)
[6] = erythromycin 32 μg/ml (Conc./MIC 1)
[7] = vancomycin 512 μg/ml (Conc./MIC 1/2)
[8] = vancomycin 1024 μg/ml (Conc./MIC 1)
[9] = linezolid 64 μg/ml (Conc./MIC 1/8)
[10] = peptide treatment concentration 1 μg/ml
[11] = peptide treatment concentration 2 μg/ml
[12] = peptide treatment concentration 4 μg/ml
[13] = peptide treatment concentration 6 μg/ml
[14] = peptide treatment concentration 8 μg/ml
[15] = peptide treatment concentration 16 μg/ml
[16] = peptide treatment concentration 32 μg/ml
[17] = peptide treatment concentration 64 μg/ml

CC[C@H](C)[C@H](NC(=O)[C@H](CCCCN)NC(=O)[C@H](Cc1c[nH]c2ccccc12)NC(=O)[C@@H](N)CCCNC(=N)N)C(=O)N[C@@H](Cc1ccccc1)C(=O)N[C@@H](CCCCN)C(=O)N[C@@H](CCCCN)C(=O)N[C@H](C(=O)N[C@H](CC(C)C)C(=O)N[C@@H](CCCCN)C(=O)N[C@@H](CC(C)C)C(=O)N[C@@H](CC(C)C)C(=O)N[C@@H](Cc1c[nH]cn1)C(=O)N[C@@H](CCC(=O)O)C(=O)N[C@@H](C)C(=O)N[C@@H](CCCCN)C(=O)N[C@@H](CCCCN)C(=O)N[C@@H](Cc1c[nH]c2ccccc12)C(N)=O)[C@@H](C)CC [PapMA-24, RWK IFK KIl KLL HEA KKW-NH2] (H-RWKIFKKI[dL]KLLHEAKKW-NH2; N-terminus assumed)
Minimal inhibitory concentration MIC (MDRST 8009): 32 µg/mL (≈ 13.5 µM)
Peptide MIC during treatment with erythromycin (A. baumannii; [3]): 8 µg/mL
Peptide MIC during treatment with erythromycin (A. baumannii; [4]): 4 µg/mL
Peptide MIC during treatment with erythromycin (A. baumannii; [5]): 4 µg/mL
Peptide MIC during treatment with erythromycin (A. baumannii; [6]): 0 µg/mL
Peptide MIC during treatment with linezolid (A. baumannii; linezolid 32 μg/ml (Conc./MIC 1/8)): 8 µg/mL
Peptide MIC during treatment with linezolid (A. baumannii; linezolid 64 μg/ml (Conc./MIC 1/4)): 4 µg/mL
Peptide MIC during treatment with linezolid (A. baumannii; linezolid […] (Conc./MIC 1)): 0 µg/mL
Peptide MIC during treatment with linezolid (A. baumannii; linezolid […] (Conc./MIC 1/2)): 1 µg/mL
Peptide MIC during treatment with vancomycin (A. baumannii; [7]): 0.25 µg/mL
Peptide MIC during treatment with vancomycin (A. baumannii; [8]): 0 µg/mL
Peptide MIC during treatment with vancomycin (A. baumannii; vancomycin […] (Conc./MIC 1/4)): 0.5 µg/mL
Peptide MIC during treatment with vancomycin (A. baumannii; vancomycin […] (Conc./MIC 1/8)): 2 µg/mL
Peptide MIC during treatment with erythromycin (MDRAB 12035; [3]): 8 µg/mL
Peptide MIC during treatment with erythromycin (MDRAB 12035; [4]): 8 µg/mL
Peptide MIC during treatment with erythromycin (MDRAB 12035; [5]): 4 µg/mL
Peptide MIC during treatment with erythromycin (MDRAB 12035; [6]): 0 µg/mL
Peptide MIC during treatment with linezolid (MDRAB 12035; [9]): 4 µg/mL
Peptide MIC during treatment with linezolid (MDRAB 12035; linezolid 512 μg/ml (Conc./MIC 1)): 0 µg/mL
Peptide MIC during treatment with linezolid (MDRAB 12035; linezolid […] (Conc./MIC 1/2)): 1 µg/mL
Peptide MIC during treatment with linezolid (MDRAB 12035; linezolid […] (Conc./MIC 1/4)): 4 µg/mL
Peptide MIC during treatment with vancomycin (MDRAB 12035; [7]): 2 µg/mL
Peptide MIC during treatment with vancomycin (MDRAB 12035; [8]): 1 µg/mL
Peptide MIC during treatment with vancomycin (MDRAB 12035; vancomycin […] (Conc./MIC 1/4)): 4 µg/mL
Peptide MIC during treatment with vancomycin (MDRAB 12035; vancomycin […] (Conc./MIC 1/8)): 4 µg/mL
Antibiotic MIC, Erythromycin (MDREC 1229 [1]; [10]): 128 µg/mL
Antibiotic MIC, Linezolid (MDREC 1229 [1]; [10]): >128 µg/mL
Antibiotic MIC, Vancomycin (MDREC 1229 [1]; [10]): >128 µg/mL
Antibiotic MIC, Erythromycin (MDREC 1229 [1]; [11]): 64 µg/mL
Antibiotic MIC, Linezolid (MDREC 1229 [1]; [11]): 128 µg/mL
Antibiotic MIC, Vancomycin (MDREC 1229 [1]; [11]): >128 µg/mL
Antibiotic MIC, Erythromycin (MDREC 1229 [1]; [12]): 32 µg/mL
Antibiotic MIC, Linezolid (MDREC 1229 [1]; [12]): 64 µg/mL
Antibiotic MIC, Vancomycin (MDREC 1229 [1]; [12]): >128 µg/mL
Antibiotic MIC, Erythromycin (MDREC 1229 [1]; [13]): 8 µg/mL
Antibiotic MIC, Linezolid (MDREC 1229 [1]; [13]): 64 µg/mL
Antibiotic MIC, Vancomycin (MDREC 1229 [1]; [13]): 64 µg/mL
Antibiotic MIC, Erythromycin (MDREC 1229 [1]; [14]): 2 µg/mL
Antibiotic MIC, Linezolid (MDREC 1229 [1]; [14]): 32 µg/mL
Antibiotic MIC, Vancomycin (MDREC 1229 [1]; [14]): 32 µg/mL
Antibiotic MIC, Erythromycin (MDREC 1229 [1]; [15]): 1 µg/mL
Antibiotic MIC, Linezolid (MDREC 1229 [1]; [15]): 8 µg/mL
Antibiotic MIC, Vancomycin (MDREC 1229 [1]; [15]): 16 µg/mL
Antibiotic MIC, Erythromycin (MDREC 1229 [1]; [16]): 0 µg/mL
Antibiotic MIC, Linezolid (MDREC 1229 [1]; [16]): 0 µg/mL
Antibiotic MIC, Vancomycin (MDREC 1229 [1]; [16]): 0 µg/mL
Antibiotic MIC, Erythromycin (MDREC 1229 [1]; [17]): 0 µg/mL
Antibiotic MIC, Linezolid (MDREC 1229 [1]; [17]): 0 µg/mL
Antibiotic MIC, Vancomycin (MDREC 1229 [1]; [17]): 0 µg/mL
Peptide MIC (E. coli; with Erythromycin […] (Conc./MIC 1)): 0 µg/mL
Peptide MIC (E. coli; with Linezolid […] (Conc./MIC 1)): 0 µg/mL
Peptide MIC (E. coli; with Vancomycin 1024 μg/ml (Conc./MIC 1)): 0 µg/mL
Peptide MIC during treatment with antibiotic (MDREC 1229 [2]; erythromycin 32 μg/ml (Conc./MIC 1/8)): 4 µg/mL
Peptide MIC during treatment with antibiotic (MDREC 1229 [2]; erythromycin 64 μg/ml (Conc./MIC 1/4)): 2 µg/mL
Peptide MIC during treatment with antibiotic (MDREC 1229 [2]; erythromycin […] (Conc./MIC 1)): 0 µg/mL
Peptide MIC during treatment with antibiotic (MDREC 1229 [2]; erythromycin […] (Conc./MIC 1/2)): 1 µg/mL
Peptide MIC during treatment with antibiotic (MDREC 1229 [2]; [9]): 4 µg/mL

From patent US11214594B2, “Antimicrobial peptide having synergistic antibacterial effect with antibiotics on multidrug resistant bacteria, and use thereof” (priority 2016, dated 2022)
